Results: article PMC8615215, “Structural and Biochemical Characterization of Thioredoxin-2 from Deinococcus radiodurans” (Antioxidants, 2021)

Molecular target: T1, DrTrxR (Deinococcus radiodurans, UniProt Q9RSY7)
T1 construct: gene DR_1982; residues 2-325, non-cleavable N-terminal His6 tag (MHHHHHH), pET-22b, expressed in E. coli BL21(DE3), Ni-NTA and size exclusion
Assay: NADPH consumption at […] nm, insulin reduction coupled through DrTrx1 or DrTrx2
Type: biochemical
Details: 0.1 mM NADPH, 0.1 uM DrTrxR, 0.1 uM DrTrx1 or 0.5 uM DrTrx2, bovine insulin, 50 mM Tris-HCl pH 7.4, room temperature

T1 sequence (Q9RSY7 entry or part of it): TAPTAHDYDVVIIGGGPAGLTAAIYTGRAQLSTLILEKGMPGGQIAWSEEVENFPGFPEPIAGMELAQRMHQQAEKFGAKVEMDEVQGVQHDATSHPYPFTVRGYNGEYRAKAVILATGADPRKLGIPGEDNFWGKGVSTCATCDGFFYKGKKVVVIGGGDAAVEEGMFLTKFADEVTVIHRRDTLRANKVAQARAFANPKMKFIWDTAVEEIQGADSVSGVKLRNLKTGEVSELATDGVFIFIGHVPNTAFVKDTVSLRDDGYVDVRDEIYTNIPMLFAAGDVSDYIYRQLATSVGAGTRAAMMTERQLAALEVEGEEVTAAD

SMILES: NC(=O)C1=CN([C@@H]2O[C@H](COP(=O)(O)OP(=O)(O)OC[C@H]3O[C@@H](n4cnc5c(N)ncnc54)[C@H](OP(=O)(O)O)[C@@H]3O)[C@@H](O)[C@H]2O)C=CC1 [NADPH]
- NADPH consumption at 340 nm, insulin reduction coupled through DrTrx1 or DrTrx2: In the presence of DrTrxR/NADPH, both DrTrx1 and DrTrx2 caused a notable decrease
